Assay results reported in patent publication US10940139B2, “Compounds that interact with the Ras superfamily for the treatment of cancers, inflammatory diseases, rasopathies, and fibrotic disease” (Shy Therapeutics LLC, priority 2017, dated 2021).

What was measured:
[1] = biological target: KRas G12D/Q61H double mutant (Homo sapiens (Human), UniProt P01116, G12D/Q61H); test: Ras GTP binding domain inhibition assay (labeled GTP); settings: at 20 μM; read-out: KRas G12D Q61H % Inh.
Procedure, shortened: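 Inhibition of labeled GTP binding is measured on immobilized His-KRas protein in Tris buffer pH 7.5 with 1 mM MgCl2 and 1 mM DTT.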

[2] = biological target: Rac-1 (Homo sapiens (Human), UniProt P63000); test: Rac inhibition assay (labeled GTP); format: binding; settings: read-out: Rac-1 % Inh.
[3] = biological target: Rho-A (Homo sapiens (Human), UniProt P61586); test: Rho inhibition assay (labeled GTP); format: binding; settings: read-out: Rho-A % Inh.
Rho-A, sequence (P61586 whole entry): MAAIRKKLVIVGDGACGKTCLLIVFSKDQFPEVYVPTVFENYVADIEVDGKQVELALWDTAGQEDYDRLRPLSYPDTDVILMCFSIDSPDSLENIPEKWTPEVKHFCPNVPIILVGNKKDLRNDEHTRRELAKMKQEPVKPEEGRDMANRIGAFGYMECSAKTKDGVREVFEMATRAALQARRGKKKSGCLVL

KRas G12D/Q61H double mutant, sequence (P01116-2 other isoform, or with tags, fused parts or gaps G12D/Q61H): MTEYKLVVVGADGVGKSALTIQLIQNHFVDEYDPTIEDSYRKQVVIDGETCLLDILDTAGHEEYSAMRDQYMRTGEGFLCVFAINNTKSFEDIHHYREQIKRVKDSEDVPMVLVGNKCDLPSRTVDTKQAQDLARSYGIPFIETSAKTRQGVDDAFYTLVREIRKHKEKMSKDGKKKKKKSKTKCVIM

In the case of `COc1cnc(CN)[nH]c1=O` [drawing 3690], the inhibition at 20 µM [1] is reported as 25 to 50%, the inhibition at 20 µM [2] is reported as 25 to 50% and the inhibition at 20 µM [3] is reported as 25 to 50%.

`COc1ccc(N2CCN(C(=O)c3csc4c(O)nc(-c5ccccn5)nc34)CC2)cc1O` [drawing 3691] gave an inhibition at 20 µM [1] of 1 to 25%, an inhibition at 20 µM [2] of 76 to 100% and an inhibition at 20 µM [3] of 76 to 100%.

`O=C(c1csc2c(O)nc(-c3ccccn3)nc12)N1CCN(c2ccc(O)c(Cl)c2)CC1` [drawing 3692] showed an inhibition at 20 µM [1] of 51 to 75%, an inhibition at 20 µM [2] of 76 to 100% and an inhibition at 20 µM [3] of 76 to 100%.

`CC(c1ccccc1)N1CCN(C(=O)c2csc3c(O)nc(-c4ccccn4)nc23)CC1` (stereo not drawn) [drawing 3693] gave an inhibition at 20 µM [1] of 51 to 75%, an inhibition at 20 µM [2] of 76 to 100% and an inhibition at 20 µM [3] of 76 to 100%.

For `O=C(c1csc2c(O)nc(-c3ccccn3)nc12)N1CCOC(CN2CCOCC2)C1` (stereo not drawn) [drawing 3694], the inhibition at 20 µM [1] was 1 to 25%, the inhibition at 20 µM [2] was 76 to 100% and the inhibition at 20 µM [3] was 51 to 75%.

`O=C(c1csc2c(O)nc(-c3ccccn3)nc12)N1CCNC(c2ccccc2Cl)C1` (stereo not drawn) [drawing 3695] was tested, and the inhibition at 20 µM [1] was 25 to 50%, the inhibition at 20 µM [2] was 76 to 100% and the inhibition at 20 µM [3] was 76 to 100%.

With `O=C(c1csc2c(O)nc(-c3ccccn3)nc12)N1CCNC(c2ccc(F)cc2)C1` (stereo not drawn) [drawing 3696] the inhibition at 20 µM [1] was 1 to 25%, the inhibition at 20 µM [2] was 76 to 100% and the inhibition at 20 µM [3] was 76 to 100%.

For `COCCCCNC(=O)c1csc2nc(-c3ccccn3)nc(N3CCS(=O)(=O)CC3)c12` [drawing 3698], the inhibition at 20 µM [1] was 1 to 25%, the inhibition at 20 µM [2] was 1 to 25% and the inhibition at 20 µM [3] was 1 to 25%.

Compound `COc1cccc(CC2CN(C(=O)c3csc4c(O)nc(-c5ccccn5)nc34)CCN2)c1` (stereo not drawn) [drawing 3702] has an inhibition at 20 µM [1] of 51 to 75%, an inhibition at 20 µM [2] of 76 to 100% and an inhibition at 20 µM [3] of 51 to 75%.

For `O=C(c1csc2c(O)nc(-c3ccccn3)nc12)N1CCNC(Cc2ccc(F)cc2)C1` (stereo not drawn) [drawing 3703], the inhibition at 20 µM [1] was 51 to 75%, the inhibition at 20 µM [2] was 76 to 100% and the inhibition at 20 µM [3] was 76 to 100%.

`O=C(c1csc2c(O)nc(-c3ccccn3)nc12)N1CCNC(Cc2cccc(F)c2)C1` (stereo not drawn) [drawing 3704] showed an inhibition at 20 µM [1] of 51 to 75%, an inhibition at 20 µM [2] of 51 to 75% and an inhibition at 20 µM [3] of 51 to 75%.

In the case of `COc1ccnc(-c2nc(O)c3c(C(F)(F)F)csc3n2)c1` [drawing 3705], the inhibition at 20 µM [1] is reported as 25 to 50%, the inhibition at 20 µM [2] is reported as 51 to 75% and the inhibition at 20 µM [3] is reported as 51 to 75%.

For `Nc1nc(-c2ccccn2)nc2c(-c3ccccc3Cl)csc12` [drawing 3707], the inhibition at 20 µM [1] was 1 to 25%, the inhibition at 20 µM [2] was 25 to 50% and the inhibition at 20 µM [3] was 25 to 50%.

`Cc1sc2c(N)nc(-c3ccccn3)nc2c1-c1ccccc1` [drawing 3709] gave an inhibition at 20 µM [1] of 25 to 50%, an inhibition at 20 µM [2] of 25 to 50% and an inhibition at 20 µM [3] of 25 to 50%.

`O=C(c1cc2nc(-c3ccccn3)nc(O)c2s1)N1CCOC(c2ccccc2)C1` (stereo not drawn) [drawing 3714] gave an inhibition at 20 µM [1] of 51 to 75%, an inhibition at 20 µM [2] of 76 to 100% and an inhibition at 20 µM [3] of 76 to 100%.

Work on `O=C(NCCc1cccnc1)c1cc2nc(-c3ccccn3)nc(O)c2s1` [drawing 3715] yielded an inhibition at 20 µM [1] of 25 to 50%, an inhibition at 20 µM [2] of 76 to 100% and an inhibition at 20 µM [3] of 76 to 100%.

`Cc1ccc(OC2CCCC2)c(-c2csc3c(O)nc(-c4ccccn4)nc23)c1` [drawing 3716] was tested, and the inhibition at 20 µM [1] was 51 to 75%, the inhibition at 20 µM [2] was 51 to 75% and the inhibition at 20 µM [3] was 51 to 75%.

Work on `CC(C)(C)c1ccc(-c2csc3c(O)nc(-c4ccccn4)nc23)cc1` [drawing 3719] yielded an inhibition at 20 µM [1] of 51 to 75%, an inhibition at 20 µM [2] of 51 to 75% and an inhibition at 20 µM [3] of 51 to 75%.

In the case of `COc1ccc(CCNC(=O)c2csc3nc(-c4ccccn4)nc(N4CCS(=O)(=O)CC4)c23)cn1` [drawing 3725], the inhibition at 20 µM [1] is reported as 25 to 50%, the inhibition at 20 µM [2] is reported as 25 to 50% and the inhibition at 20 µM [3] is reported as 1 to 25%.

Compound `O=C(NCCc1cnc(O)nc1)c1csc2nc(-c3ccccn3)nc(N3CCS(=O)(=O)CC3)c12` [drawing 3726] has an inhibition at 20 µM [1] of 25 to 50%, an inhibition at 20 µM [2] of 51 to 75% and an inhibition at 20 µM [3] of 51 to 75%.

In the case of `N#Cc1ccc2c(c1)CCCC2C(=O)Nc1ccnc(-c2ccccn2)n1` (stereo not drawn) [drawing 3727], the inhibition at 20 µM [1] is reported as 51 to 75%, the inhibition at 20 µM [2] is reported as 51 to 75% and the inhibition at 20 µM [3] is reported as 51 to 75%.

In the case of `Oc1nc(-c2ccccn2)nc2c(-c3ccc(OC4CCOC4)cc3)csc12` (stereo not drawn) [drawing 3734], the inhibition at 20 µM [1] is reported as 25 to 50%, the inhibition at 20 µM [2] is reported as 51 to 75% and the inhibition at 20 µM [3] is reported as 76 to 100%.

In the case of `Oc1nc(-c2ccccn2)nc2c(-c3ccc(OC4CCCC4)cc3)csc12` [drawing 3735], the inhibition at 20 µM [1] is reported as 25 to 50%, the inhibition at 20 µM [2] is reported as 25 to 50% and the inhibition at 20 µM [3] is reported as 25 to 50%.

`Oc1nc(-c2ccccn2)nc2c(-c3ccc(C4CCC4)cc3)csc12` [drawing 3737] showed an inhibition at 20 µM [1] of 51 to 75%, an inhibition at 20 µM [2] of 51 to 75% and an inhibition at 20 µM [3] of 51 to 75%.

In the case of `Oc1nc(-c2ccccn2)nc2c(-c3ccccc3OC3CCCCC3)csc12` [drawing 3738], the inhibition at 20 µM [1] is reported as 51 to 75%, the inhibition at 20 µM [2] is reported as 51 to 75% and the inhibition at 20 µM [3] is reported as 51 to 75%.

`Oc1nc(-c2ccccn2)nc2c(-c3ccc(OC4CCOCC4)cc3)csc12` [drawing 3739] gave an inhibition at 20 µM [1] of 25 to 50%, an inhibition at 20 µM [2] of 51 to 75% and an inhibition at 20 µM [3] of 51 to 75%.

`COc1cc(C)c(-c2csc3c(O)nc(-c4ccccn4)nc23)cc1C` [drawing 3741] gave an inhibition at 20 µM [1] of 25 to 50%, an inhibition at 20 µM [2] of 51 to 75% and an inhibition at 20 µM [3] of 25 to 50%.
